Drawing on US11512090B2, “Muscarinic acetylcholine M1 receptor antagonists” (PIPELINE THERAPEUTICS, INC., priority 2018, dated 2022), this text covers IC50 for 19 compounds.

The structures appear in SMILES notation. Read-outs that look alike come from different tables or passages of the source. Where only a bound is given, the exact number is not on record here.

Format in all cases: cell-based
The target in assay [1] is T1, human M1 receptor (Homo sapiens, UniProt P11229).
T1 sequence (P11229 1-460): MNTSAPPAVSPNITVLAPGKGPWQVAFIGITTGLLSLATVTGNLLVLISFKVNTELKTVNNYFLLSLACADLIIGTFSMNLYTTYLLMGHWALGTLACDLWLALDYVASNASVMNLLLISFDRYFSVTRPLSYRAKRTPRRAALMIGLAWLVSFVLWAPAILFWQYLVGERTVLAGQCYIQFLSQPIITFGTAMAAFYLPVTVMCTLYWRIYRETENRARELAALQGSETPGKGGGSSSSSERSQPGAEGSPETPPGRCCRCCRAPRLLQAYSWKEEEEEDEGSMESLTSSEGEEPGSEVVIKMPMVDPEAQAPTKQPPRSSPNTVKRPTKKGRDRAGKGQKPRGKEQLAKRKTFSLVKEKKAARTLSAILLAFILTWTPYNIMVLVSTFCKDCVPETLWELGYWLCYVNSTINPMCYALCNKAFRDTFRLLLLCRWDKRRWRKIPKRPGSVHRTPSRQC
The assay can be described thus: In vitro functional assay of muscarinic acetylcholine receptor activity (aequorin calcium flux, antagonist mode vs EC80 acetylcholine), M1. The method, then:
(§1) CHO-K1 cells stably expressing human M1 receptor with Aequorin (Perkin Elmer) were grown in F12 media, 10% FBS with 0.4 mg/mL geneticin and […]. Cells were grown to confluence and frozen down to be assayed at a later date. On the day of the experiment cells were thawed in a 37° C. water bath, resuspended in DMEM/HAM's F12 with HEPES (Invitrogen)+0.1% protease-free BSA (assay buffer), and spun down to remove freezing media. After centrifugation, supernatant was removed and 12 mL of assay buffer was added. Coelenterazine h (Promega) was added to the cells at a final concentration of 5 uM and incubated for 4 hours at room temperature in the dark. Compound master plate-96 deep well (Corning) were formatted in a 8-point DRC in assay buffer with 0.2% DMSO at a starting concentration of 60 uM (2×). After 4 hours of incubation, cells were plated at a concentration of 5×10^5 cells/well in 96 well white-walled, tissue culture-treated, clear-bottom plates (VWR). Compounds were added to the daughter plate, and cells plus compound were incubated at room temperature for 30 minutes in the dark.
(§2) Calcium flux was measured using the FlexStation 3 (Molecular Devices). To measure the antagonist dose-response, the EC80 of Acetylcholine was injected to the daughter plate using the automated compound transfer function of the Flex Station, and the increase in luminescence was measured over time. Antagonist activity was analyzed as a concentration dependent decrease in the EC80 acetylcholine response. Dose response curves were generated using Prism (GraphPad Software). The IC50 of the compounds was calculated from the dose response curve.
On the technique in general: A change in cytosolic calcium serves as a functional read-out for many receptors and channels.

Assay [2] addresses M3 (Homo sapiens, UniProt P20309). Briefly: In vitro functional assay of muscarinic acetylcholine receptor activity, M3. Conditions: antagonist IC50 at M3; read-out: M3 IC50. The method, then: [The procedure below names another target; the source lists this target under the same test.] as §1, §2
Assay [3] addresses T2, M2 (Homo sapiens, UniProt P08172).
T2 sequence (P08172 1-466): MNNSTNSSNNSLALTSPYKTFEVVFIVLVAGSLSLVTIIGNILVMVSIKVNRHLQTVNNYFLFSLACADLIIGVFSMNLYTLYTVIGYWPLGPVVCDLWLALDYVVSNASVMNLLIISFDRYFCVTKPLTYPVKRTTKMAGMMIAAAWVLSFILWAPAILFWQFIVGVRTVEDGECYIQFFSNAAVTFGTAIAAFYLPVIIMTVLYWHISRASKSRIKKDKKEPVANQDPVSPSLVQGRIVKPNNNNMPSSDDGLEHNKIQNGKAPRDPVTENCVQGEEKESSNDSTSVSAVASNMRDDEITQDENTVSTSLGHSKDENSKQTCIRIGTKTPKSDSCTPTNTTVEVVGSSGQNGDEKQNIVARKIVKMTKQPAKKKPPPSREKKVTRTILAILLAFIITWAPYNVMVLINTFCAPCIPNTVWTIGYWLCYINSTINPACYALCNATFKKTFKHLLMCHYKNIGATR
The assay can be described thus: In vitro functional assay of muscarinic acetylcholine receptor activity, M2. The method, then:
[The procedure below names another target; the source lists this target under the same test.] as §1, §2

Setting [4] is: CHO-K1 cells stably expressing human M1 receptor with Aequorin, decrease in EC80 acetylcholine response, read-out: M1 IC50.
[5] abbreviates: antagonist IC50 at M2, read-out: M2 IC50.

Sequence of M3 (P20309 whole entry): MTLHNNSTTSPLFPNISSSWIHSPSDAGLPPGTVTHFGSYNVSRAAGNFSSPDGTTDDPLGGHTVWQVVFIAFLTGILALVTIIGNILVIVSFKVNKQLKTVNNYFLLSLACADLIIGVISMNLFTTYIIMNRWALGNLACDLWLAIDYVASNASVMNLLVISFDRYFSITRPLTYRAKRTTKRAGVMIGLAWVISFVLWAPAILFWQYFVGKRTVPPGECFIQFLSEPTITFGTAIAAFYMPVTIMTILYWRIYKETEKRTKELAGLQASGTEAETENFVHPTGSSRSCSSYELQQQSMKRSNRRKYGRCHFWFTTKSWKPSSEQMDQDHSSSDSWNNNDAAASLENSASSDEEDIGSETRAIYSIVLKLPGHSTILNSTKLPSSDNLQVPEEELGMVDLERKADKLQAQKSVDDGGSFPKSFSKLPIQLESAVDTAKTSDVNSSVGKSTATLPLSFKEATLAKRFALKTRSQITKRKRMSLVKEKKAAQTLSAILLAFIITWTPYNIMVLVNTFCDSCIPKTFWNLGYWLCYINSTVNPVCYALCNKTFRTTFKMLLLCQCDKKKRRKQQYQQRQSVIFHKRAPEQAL

Regarding `C[C@@H]1CN(c2ccc(F)c(C#N)c2)CCN1C(=O)CCCc1cccc2ncccc12` [Example 23, (R)-2-fluoro-5-(3-methyl-4-(4-(quinolin-5-yl)butanoyl)piperazin-1-yl)benzonitrile], the IC50 (commonly the concentration at which inhibition is half-maximal) was below 0.1 µM in assay [1] (setting [4]), 1 to 10 µM in assay [2] and 1 to 10 µM in assay [3] (setting [5]).

As to `N#Cc1ccc(N2C3CCC2CN(C(=O)CCS(=O)(=O)c2cccc4ncsc24)C3)nc1` [Example 24, 6-{3-[3-(1,3-benzothiazole-7-sulfonyl)propanoyl]-3,8-diazabicyclo[3.2.1]octan-8-yl}pyridine-3-carbonitrile], the results for the IC50 in assay [1], in assay [2] and in assay [3] (setting [5]) were below 0.1 µM, 0.1 to 1 µM and 0.1 to 1 µM, respectively.

For the compound `Cc1cc(C#N)ncc1N1CCN(C(=O)CCS(=O)(=O)c2cccc3ncsc23)[C@@H](C)C1` [Example 25, 5-[(3S)-4-[3-(1,3-benzothiazole-7-sulfonyl)propanoyl]-3-methylpiperazin-1-yl]-4-methylpyridine-2-carbonitrile], the IC50 in assay [1] (setting [4]) was below 0.1 µM; in assay [2], above 10 µM; in assay [3] (setting [5]) it was 0.1 to 1 µM.

Regarding `C[C@H]1CN(c2c[nH]c(=O)cc2Cl)CCN1C(=O)CCS(=O)(=O)c1cccc2ncsc12` [Example 26, 5-[(3S)-4-[3-(1,3-benzothiazole-7-sulfonyl)propanoyl]-3-methylpiperazin-1-yl]-4-chloro-1,2-dihydropyridin-2-one], the IC50 is 0.1 to 1 µM in assay [1] (setting [4]), above 10 µM in assay [2] and above 10 µM in assay [3] (setting [5]).

As to `N#Cc1ccc(C2=CC3CCC2CN3C(=O)CCS(=O)(=O)c2cccc3ncsc23)nc1` (stereo not drawn) [Example 27, 6-{2-[3-(1,3-benzothiazole-7-sulfonyl)propanoyl]-2-azabicyclo[2.2.2]oct-5-en-5-yl}pyridine-3-carbonitrile], the IC50 in assay [1] (setting [4]) was below 0.1 µM; in assay [2], 1 to 10 µM; in assay [3] (setting [5]), 0.1 to 1 µM.

Turning to `N#Cc1ccc(C2CC3CCC2CN3C(=O)CCS(=O)(=O)c2cccc3ncsc23)nc1` (stereo not drawn) [Example 28, 6-[2-[3-(1,3-benzothiazole-7-sulfonyl)propanoyl]-2-azabicyclo[2.2.2]octan-5-yl]pyridine-3-carbonitrile], the IC50 in assay [1] (setting [4]) was below 0.1 µM; in assay [2], 1 to 10 µM; in assay [3] (setting [5]) it was 0.1 to 1 µM.

For the compound `N#Cc1ccc(N2C3CCC2CN(C(=O)CCNCc2cccc4ncsc24)C3)nc1` [Example 29, 6-[3-(3-{[(1,3-benzothiazol-7-yl)methyl]amino}propanoyl)-3,8-diaza-bicyclo[3.2.1]octan-8-yl]pyridine-3-carbonitrile], the figures for the IC50 in assay [1], in assay [2] and in assay [3] (setting [5]) were below 0.1 µM, 1 to 10 µM and 1 to 10 µM, respectively.

With `N#Cc1ccc(N2C3CCC2CN(C(=O)C2CC(NCc4cccc5ncsc45)C2)C3)nc1` (stereo not drawn) [Example 30, 6-[3-(3-{[(1,3-benzothiazol-7-yl)methyl]amino}cyclobutanecarbonyl)-3,8-diazabicyclo[3.2.1]octan-8-yl]pyridine-3-carbonitrile], the IC50 in assay [1] was 0.1 to 1 µM; in assay [2], above 10 µM; in assay [3] (setting [5]) it was 1 to 10 µM.

Turning to `N#Cc1ccc(N2C3CCC2CN(C(=O)C2CC(Cc4cccc5ncsc45)C2)C3)nc1` (stereo not drawn) [Example 31, 6-(3-{3-[(1,3-benzothiazol-7-yl)methyl]cyclobutanecarbonyl}-3,8-diazabicyclo[3.2.1]octan-8-yl)pyridine-3-carbonitrile], the IC50 in assay [1] is below 0.1 µM; in assay [2], 1 to 10 µM; in assay [3] (setting [5]), 1 to 10 µM.

For the compound `O=C(CCS(=O)(=O)c1cccc2ncsc12)N1CCC2(c3ccc(C(F)(F)F)cn3)CC2C1` (stereo not drawn) [Example 32, 3-(1,3-benzothiazole-7-sulfonyl)-1-{6-[5-(trifluoromethyl)pyridin-2-yl]-3-azabicyclo[4.1.0]heptan-3-yl}propan-1-one], the IC50 in assay [1] (setting [4]) fell in the range of 0.1 to 1 µM; in assay [2], 1 to 10 µM; in assay [3] (setting [5]), 1 to 10 µM.

Take `N#Cc1ccc(N2C3CCC2CN(C(=O)CCNCc2cccc4ncnn24)C3)nc1` [Example 33, 6-(3-{3-[({[1,2,4]triazolo[1,5-a]pyridin-5-yl}methyl)amino]propanoyl}-3,8-diazabicyclo[3.2.1]octan-8-yl)pyridine-3-carbonitrile]: the IC50 in assay [1] is below 0.1 µM; in assay [2], above 10 µM; in assay [3] (setting [5]), 1 to 10 µM.

In the case of `N#Cc1ccc(N2C3CCC2CN(C(=O)CCNCc2c(F)ccc4nccn24)C3)nc1` [Example 34, 6-(3-{3-[({6-fluoroimidazo[1,2-a]pyridin-5-yl}methyl)amino]propanoyl}-3,8-diazabicyclo[3.2.1]octan-8-yl)pyridine-3-carbonitrile], the IC50 in assay [1] was below 0.1 µM; in assay [2], 1 to 10 µM; in assay [3] (setting [5]) it was 1 to 10 µM.

Turning to `N#Cc1ccc(N2C3CCC2CN(C(=O)CCN(Cc2cccc4ncsc24)C2CC2)C3)nc1` [Example 35, 6-[3-(3-{[(1,3-benzothiazol-7-yl)methyl](cyclopropyl)amino}propanoyl)-3,8-diazabicyclo[3.2.1]octan-8-yl]pyridine-3-carbonitrile], the IC50 in assay [1] was below 0.1 µM; in assay [2] it was 0.1 to 1 µM; in assay [3] (setting [5]), 0.1 to 1 µM.

Regarding `[2H]C([2H])(NCCC(=O)N1CC2CCC(C1)N2c1ccc(C#N)cn1)c1cccc2ncsc12` [Example 36, 6-[3-(3-[(benzo[d]thiazol-7-ylmethyl-d2)amino]propanoyl)-3,8-diazabicyclo[3.2.1]octan-8-yl]pyridine-3-carbonitrile], the IC50 in assay [1] is below 0.1 µM; in assay [2], 1 to 10 µM; in assay [3] (setting [5]), 1 to 10 µM.

In the case of `N#Cc1ccc(N2C3CCC2CN(C(=O)CCOCc2cccc4nccnc24)C3)nc1` [Example 37, 6-(3-{3-[(quinoxalin-5-yl)methoxy]propanoyl}-3,8-diazabicyclo[3.2.1]octan-8-yl)pyridine-3-carbonitrile], the IC50 is below 0.1 µM in assay [1], above 10 µM in assay [2] and 1 to 10 µM in assay [3] (setting [5]).

Turning to `N#Cc1ccc(N2[C@@H]3CC[C@H]2CN(C(=O)COCc2cccc4nccnc24)C3)nc1` [Example 38, 6-((1R, 5S)-3-(2-(quinoxalin-5-ylmethoxy)acetyl)-3,8-diazabicyclo[3.2.1]octan-8-yl)nicotinonitrile], the 50% inhibitory concentration (IC50) in assay [1] was below 0.1 µM; in assay [2] it was 1 to 10 µM; in assay [3] (setting [5]) it was 0.1 to 1 µM.

Turning to `N#Cc1ccc(N2C3CCC2CN(C(=O)CCOCc2cccc4ncnn24)C3)nc1` [Example 39, 6-{3-[3-({[1,2,4]triazolo[1,5-a]pyridin-5-yl}methoxy)propanoyl]-3,8-diazabicyclo[3.2.1]octan-8-yl}pyridine-3-carbonitrile], the IC50 is below 0.1 µM in assay [1], 1 to 10 µM in assay [2] and 1 to 10 µM in assay [3] (setting [5]).

For `N#Cc1ccc(N2[C@@H]3CC[C@H]2CN(C(=O)CCOCc2cccc4ncccc24)C3)nc1` [Example 40, 6-((1R, 5S)-3-(3-(quinolin-5-ylmethoxy)propanoyl)-3,8-diazabicyclo[3.2.1]octan-8-yl)nicotinonitrile], the IC50 in assay [1] was below 0.1 µM; in assay [2], above 10 µM; in assay [3] it was 0.1 to 1 µM.

In the case of `N#Cc1ccc(N2C3CCC2CN(C(=O)CCOCc2cccn4ncnc24)C3)nc1` [Example 42, 6-{3-[3-({[1,2,4]triazolo[1,5-a]pyridin-8-yl}methoxy)propanoyl]-3,8-diazabicyclo[3.2.1]octan-8-yl}pyridine-3-carbonitrile], the results for the IC50 in assay [1], in assay [2] and in assay [3] (setting [5]) were below 0.1 µM, 1 to 10 µM and 1 to 10 µM, respectively.
